Key:
C57BL6 mice = assay: In vivo model of myocardium infarction (coronary occlusion-reperfusion)
Method: The purpose of this experiment is to study in vivo the cardioprotective properties of the compounds, 3,5-seco-4-nor-cholestan-5-one oxime-3-ol and 3,5-seco-4-nor-cholestan-5-one oxime-3-N,N-dimethylglycine ester, in a murine coronary occlusion-reperfusion model.
The compounds to be tested are administered intravenously in mice, 5 minutes before reperfusion of the myocardium ischemiated beforehand. As controls, carriers of the compounds beta-cyclodextrin (hereafter called βCD) and water, respectively, are administered under the same conditions as for the compounds.
In order to determine the effect of the tested compounds, the size of the infarction is measured after 24 hour reperfusion.
6-8 week old male C57BL6 mice are anaesthetized with sodium pentobarbital (50 mg/kg i.p.) and are ventilated after intubation with an O2/CO2 (95%/5%) mixture throughout the experiment. The surface electrocardiogram (ECG) is recorded and viewed on an oscilloscope all along surgery. Under strict asepsis conditions, the jugular vein is catheterized for intravenous administration of the compounds. A left lateral thoracotomy is performed and after pericardiotomy, a major branch of the left coronary artery is localized in the latero-posterior region of the left ventricle. A prolene no. 8 suture is positioned around this artery so as to form a mobile loop for making a temporary coronary occlusion.
All the mice were subject to a 30 minute temporary coronary occlusion. Ischemia of the myocardium region is confirmed by cyanosis of the myocardium surface and a deviation of the ST segment of the electrocardiogram.
Each of the compounds (treated group, n=10) or its solvent (control group, n=10) was administered as a bolus intravenously, 5 min before lifting the 30 minutes of coronary occlusion.
3,5-seco-4-nor-cholestan-5-one oxime-3-ol, dissolved beforehand to a final concentration of 0.46 mg/ml in a 30% βCD solution in phosphate buffer prepared by saturation followed by centrifugation, is administered at a dosage of 1 mg/kg.
3,5-seco-4-nor-cholestan-5-one oxime-3-N,N-dimethylglycine ester, dissolved beforehand to a final concentration of 1.56 mg/ml in sterile water by stirring and sonication, is administered at a dosage of 3.9 mg/kg.
The same volume of carrier is administered in the corresponding control groups.
Twenty four hours after the end of coronary occlusion, the mice are re-anaesthetized with sodium pentobarbital (50 mg/kg i.p.) and heparin is administered intravenously (Choay© heparin 1,000 IU/kg). A ligature of the coronary artery is achieved at the same location having been subject to the first occlusion 24 h previously. The mice are then euthanized with a lethal saturated dose of potassium chloride and their heart is rapidly excised and then mounted through the aorta artery on a retrograde perfusion system of the Langendorff type.
A 5% Evans blue solution is perfused retrogradely so that the healthy myocardium is colored in blue; the area made ischemic during the coronary occlusion, or <<area of risk AR>> remaining uncolored by default.
The left ventricle is then cut out into 5 slices with equal thicknesses (1 mm) by means of a slicer specially designed for hearts of mice (Les Isolants de Paris, Palaiseau), which are then weighed.
These slices are incubated in a 1% triphenyltetrazolium chloride solution (TTC, Sigma, Poole, UK) at pH 7.4 for 20 min at 37° C. and then set in 4% formol. TTC has the property of coloring the non-infarcted myocardium in red, and so showing the infarcted areas in white. Each heart slice is placed under a stereo microscope for taking a high definition digital photograph.
Quantification of infarction and the area of risk is carried out by planimetry (Scion Image, Scion, Frederick Md., USA) and referred to the weight of each slice.
The area of risk (non-blue area) is expressed as a percentage of the weight of the left ventricle. The infarction sizes are expressed as a percentage of the weight of the area of risk. […]

CD1 mice [1] = assay: Acute hepatotoxicity: lethal intoxication by the Jo2 antibody (survival); type: in vivo; conditions: for Survival rate: 24 hrs
Method: (§1) Male adult CD1 mice from the breeder “Elevage Janvier”, (Le Genest-Saint-Isle, France) were used. The animals were identified individually and had free access to water and food.
(§2) A stock solution of monoclonal hamster anti-mouse CD95 (Fas) antibody, called Jo2, from Pharmingen (BD Biosciences, ref. 554254 batch 32699) is prepared at a concentration of 1 mg/mL in water. The dilutions used are made in 0.9% sodium chloride in water.
(§3) The desired amount of 3,5-seco-4-nor-cholestan-5-one oxime-3-ol is weighed and milled into a fine powder, and then mixed with Cremophore EL (Sigma C5135) and absolute ethanol (Carlo Erba RPE 41571) (5% and 10% of the final volume, respectively). After complete dissolution, 0.9% sodium chloride in water is added extemporaneously (85% of the final volume).
In this experiment, the effect of 3,5-seco-4-nor-cholestan-5-one oxime-3-ol on the survival of animals after administering a lethal dose of the Jo2 antibody is evaluated.
The Jo2 antibody is administered by intraperitoneal injection at a dose of 200 ou 250 μg/kg in a volume of 5 mL/kg of body weight.
3,5-seco-4-nor-cholestan-5-one oxime-3-ol is tested at 10 and 30 mg/kg, as a pretreatment, 1 hr before administering Jo2 or as a post-treatment, 1 hr after administering Jo2.
A control is obtained with animals receiving pretreatment by intraperitoneal administration, 1 hr before or 1 hr after administering the antibody, of an identical volume of solution having been used for preparing the compound to be tested, without the compound.

CD1 mice [2] = assay: Acute hepatotoxicity: intoxication by Jo2 anti-Fas antibody and assaying ALATs; type: in vivo; conditions: blood 24 hrs after Jo2, control 2,860 ± 382
Source text: An acute model of hepatic damage may be induced by a single injection of the Jo2 anti-Fas antibody (Ogasawara et al., Nature, August 1993), producing severe hepatic damages and resembling viral, auto-immune or drug-induced hepatitis.
Alanine Aminotransferase (ALAT) also called Serum Glutamic Pyruvic Transaminase (SGPT) is an enzyme present in hepatocytes.
as §1, §2, §3
Pretreatment with 3,5-seco-4-nor-cholestan-5-one oxime-3-ol is carried out with dosages of 10 and 30 mg/kg by intraperitoneal administration 1 hr before administering the Jo2 antibody. […]

[3] = 1 mg/kg i.v. bolus in βCD 5 min before reperfusion, 30 min occlusion, 24 h reperfusion, mean±SEM

Structure (SMILES): CC(C)CCC[C@@H](C)[C@H]1CC[C@H]2[C@@H]3CC/C(=N\O)[C@](C)(CCCO)[C@H]3CC[C@]12C [3,5-seco-4-nor-cholestan-5-one oxime-3-ol]
- Area of risk (percentage of the weight of the left ventricle) (C57BL6 mice; [3]): 9 +/− 4%
- Infarction size (percentage of the weight of the area of risk) (C57BL6 mice; [3]): 21 +/− 7%
- Infarction size reduction (C57BL6 mice; 1 mg/kg i.v., versus carrier (βCD)): 36.4%
- Survival rate (CD1 mice [1]; Experience 5: Jo2 200 μg/kg, 10 mg/kg post-treatment, control 30): 60%
- Mortality (24 hrs)/total number of animals (CD1 mice [1]; Experience 5: Jo2 200 μg/kg, 10 mg/kg post-treatment, control 14/20): 8/20
- Survival rate (CD1 mice [1]; Experience 6: Jo2 200 μg/kg, 30 mg/kg post-treatment, control 20): 60%
- Mortality (24 hrs)/total number of animals (CD1 mice [1]; Experience 6: Jo2 200 μg/kg, 30 mg/kg post-treatment, control 16/20): 8/20
- Survival rate (CD1 mice [1]; Experiment 1: Jo2 250 μg/kg, 10 mg/kg pretreatment, control 25): 65%
- Mortality (24 hrs)/total number of animals (CD1 mice [1]; Experiment 1: Jo2 250 μg/kg, 10 mg/kg pretreatment, control 15/20): 7/20
- Survival rate (CD1 mice [1]; Experiment 2: Jo2 250 μg/kg, 30 mg/kg pretreatment, control 10): 90%
- Mortality (24 hrs)/total number of animals (CD1 mice [1]; Experiment 2: Jo2 250 μg/kg, 30 mg/kg pretreatment, control 18/20): 2/20
- Survival rate (CD1 mice [1]; Experiment 3: Jo2 250 μg/kg, 10 mg/kg post-treatment, control 10): 15%
- Mortality (24 hrs)/total number of animals (CD1 mice [1]; Experiment 3: Jo2 250 μg/kg, 10 mg/kg post-treatment, control 18/20): 17/20
- Survival rate (CD1 mice [1]; Experiment 4: Jo2 250 μg/kg, 30 mg/kg post-treatment, control 5): 35%
- Mortality (24 hrs)/total number of animals (CD1 mice [1]; Experiment 4: Jo2 250 μg/kg, 30 mg/kg post-treatment, control 19/20): 13/20
- ALAT activity Average +/− SEM (CD1 mice [2]; 10 mg/kg i.p. 1 hr before Jo2 125 μg/kg i.p.): 511 ± 140 U/L
- ALAT activity Average +/− SEM (CD1 mice [2]; 30 mg/kg i.p. 1 hr before Jo2 125 μg/kg i.p.): 533 ± 150 U/L
